Source: PubChem BioAssay (NCI)
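The compound was tested at five concentrations on cells cultured in 96-well plates, with a 48-hour exposure period. Here, GI50 denotes the concentration required for 50% inhibition of growth. TGI: concentration producing complete growth inhibition.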

What was measured:
Experiment in all cases: inhibition of tumour cell growth, NCI panel, 48 h
OVCAR-3 ovarian = system: OVCAR-3 ovarian
OVCAR-4 ovarian = system: OVCAR-4 ovarian
MCF7 breast = system: MCF7 breast
HOP-92 NSCLC = system: HOP-92 NSCLC
SK-MEL-5 melanoma = system: SK-MEL-5 melanoma
PC-3 prostate = system: PC-3 prostate
A498 renal = system: A498 renal
BT-549 breast = system: BT-549 breast
OVCAR-8 ovarian = system: OVCAR-8 ovarian
HCC-2998 colon = system: HCC-2998 colon
CCRF-CEM leukemia = system: CCRF-CEM leukemia
UO-31 renal = system: UO-31 renal
HT29 colon = system: HT29 colon
MOLT-4 leukemia = system: MOLT-4 leukemia
IGROV1 ovarian = system: IGROV1 ovarian
MALME-3M melanoma = system: MALME-3M melanoma
HCT-116 colon = system: HCT-116 colon
786-0 renal = system: 786-0 renal
NCI-H226 lung = system: NCI-H226 lung
UACC-62 melanoma = system: UACC-62 melanoma
DU-145 prostate = system: DU-145 prostate
HL-60(TB) leukemia = system: HL-60(TB) leukemia
K-562 leukemia = system: K-562 leukemia
SNB-19 CNS = system: SNB-19 CNS
NCI-H460 lung = system: NCI-H460 lung
LOX IMVI melanoma = system: LOX IMVI melanoma
SW-620 colon = system: SW-620 colon
KM12 colon = system: KM12 colon
UACC-257 melanoma = system: UACC-257 melanoma
SN12C renal = system: SN12C renal
SK-OV-3 ovarian = system: SK-OV-3 ovarian
MDA-MB-435 = system: MDA-MB-435
HCT-15 colon = system: HCT-15 colon
HOP-62 NSCLC = system: HOP-62 NSCLC
RPMI-8226 leukemia = system: RPMI-8226 leukemia
COLO 205 colon = system: COLO 205 colon
NCI-H522 lung = system: NCI-H522 lung
HS 578T breast = system: HS 578T breast
NCI/ADR-RES ovarian = system: NCI/ADR-RES ovarian
SF-295 CNS = system: SF-295 CNS
MDA-MB-231 breast = system: MDA-MB-231 breast
CAKI-1 renal = system: CAKI-1 renal
TK-10 renal = system: TK-10 renal
SF-268 CNS = system: SF-268 CNS
U251 CNS = system: U251 CNS
M14 melanoma = system: M14 melanoma
T-47D breast = system: T-47D breast
A549 NSCLC = system: A549 NSCLC
NCI-H23 lung = system: NCI-H23 lung
RXF 393 renal = system: RXF 393 renal
SR leukemia = system: SR leukemia
SNB-75 CNS = system: SNB-75 CNS

Work on `Clc1ccc(Nc2ccnc(N3CCN(c4ccnc5cc(Cl)ccc45)CC3)n2)cc1` yielded a GI50 (OVCAR-3 ovarian) of 2.93 µM, a TGI (OVCAR-3 ovarian) of 9.87 µM and a GI50 (OVCAR-4 ovarian) of 2.56 µM. For the same compound, the TGI (OVCAR-4 ovarian) was greater than 100 µM, the GI50 (MCF7 breast) was 1.96 µM and the TGI (MCF7 breast) was 6.87 µM. It also gave a GI50 (HOP-92 NSCLC) of 0.935 µM, a TGI (HOP-92 NSCLC) of 4.18 µM and a GI50 (SK-MEL-5 melanoma) of 1.81 µM. For the same compound, the TGI (SK-MEL-5 melanoma) was 3.66 µM, the GI50 (PC-3 prostate) was 1.98 µM and the TGI (PC-3 prostate) was 13.3 µM. For the same compound, the GI50 (A498 renal) was 0.603 µM, the TGI (A498 renal) was 6.91 µM and the GI50 (BT-549 breast) was 2.13 µM. For the same compound, the TGI (BT-549 breast) was 6.92 µM, the GI50 (OVCAR-8 ovarian) was 3.15 µM and the TGI (OVCAR-8 ovarian) was 21.3 µM. It also gave a GI50 (HCC-2998 colon) of 3.39 µM, a TGI (HCC-2998 colon) of 9.63 µM and a GI50 (CCRF-CEM leukemia) of 3.07 µM. It also gave a TGI (CCRF-CEM leukemia) of 20.6 µM, a GI50 (UO-31 renal) of 1.28 µM and a TGI (UO-31 renal) of 5.61 µM. The GI50 (HT29 colon) was 2.03 µM, the TGI (HT29 colon) was 4.88 µM and the GI50 (MOLT-4 leukemia) was 2.94 µM. The TGI (MOLT-4 leukemia) was 9.97 µM, the GI50 (IGROV1 ovarian) was 3.82 µM and the TGI (IGROV1 ovarian) was greater than 100 µM. It also gave a GI50 (MALME-3M melanoma) of 2.32 µM, a TGI (MALME-3M melanoma) of 9.82 µM and a GI50 (HCT-116 colon) of 1.99 µM. The TGI (HCT-116 colon) was 6.38 µM, the GI50 (786-0 renal) was 2.38 µM and the TGI (786-0 renal) was 7.88 µM. It also gave a GI50 (NCI-H226 lung) of 3.96 µM, a TGI (NCI-H226 lung) of 23.4 µM and a GI50 (UACC-62 melanoma) of 1.95 µM. For the same compound, the TGI (UACC-62 melanoma) was 6.97 µM, the GI50 (DU-145 prostate) was 4.8 µM and the TGI (DU-145 prostate) was 31.6 µM. For the same compound, the GI50 (HL-60(TB) leukemia) was 3.54 µM, the TGI (HL-60(TB) leukemia) was 20 µM and the GI50 (K-562 leukemia) was 2.56 µM. For the same compound, the TGI (K-562 leukemia) was 7.94 µM, the GI50 (SNB-19 CNS) was 3.68 µM and the TGI (SNB-19 CNS) was 74.5 µM. It also gave a GI50 (NCI-H460 lung) of 2.33 µM, a TGI (NCI-H460 lung) of 6.76 µM and a GI50 (LOX IMVI melanoma) of 1.84 µM. It also gave a TGI (LOX IMVI melanoma) of 3.58 µM, a GI50 (SW-620 colon) of 2.88 µM and a TGI (SW-620 colon) of 11.6 µM. For the same compound, the GI50 (KM12 colon) was 3.04 µM, the TGI (KM12 colon) was 11.5 µM and the GI50 (UACC-257 melanoma) was 3.05 µM. The TGI (UACC-257 melanoma) was 13.5 µM, the GI50 (SN12C renal) was 3 µM and the TGI (SN12C renal) was 28.6 µM. For the same compound, the GI50 (SK-OV-3 ovarian) was 3.28 µM, the TGI (SK-OV-3 ovarian) was 44.7 µM and the GI50 (MDA-MB-435) was 1.86 µM. The TGI (MDA-MB-435) was 5.99 µM, the GI50 (HCT-15 colon) was 2.49 µM and the TGI (HCT-15 colon) was 10 µM. For the same compound, the GI50 (HOP-62 NSCLC) was 3.1 µM, the TGI (HOP-62 NSCLC) was 20.9 µM and the GI50 (RPMI-8226 leukemia) was 2.75 µM. The TGI (RPMI-8226 leukemia) was 15.1 µM, the GI50 (COLO 205 colon) was 1.92 µM and the TGI (COLO 205 colon) was 4.63 µM. It also gave a GI50 (NCI-H522 lung) of 1.65 µM, a TGI (NCI-H522 lung) of 4.94 µM and a GI50 (HS 578T breast) of 1.75 µM. The TGI (HS 578T breast) was 7.79 µM, the GI50 (NCI/ADR-RES ovarian) was 2.68 µM and the TGI (NCI/ADR-RES ovarian) was 7.83 µM. For the same compound, the GI50 (SF-295 CNS) was 1.73 µM, the TGI (SF-295 CNS) was 4.23 µM and the GI50 (MDA-MB-231 breast) was 2.22 µM. It also gave a TGI (MDA-MB-231 breast) of 7.22 µM, a GI50 (CAKI-1 renal) of 2.47 µM and a TGI (CAKI-1 renal) of 15.6 µM. The GI50 (TK-10 renal) was 3.43 µM, the TGI (TK-10 renal) was 8.5 µM and the GI50 (SF-268 CNS) was 3.33 µM. The TGI (SF-268 CNS) was 16.2 µM, the GI50 (U251 CNS) was 2.84 µM and the TGI (U251 CNS) was 11.1 µM. The GI50 (M14 melanoma) was 1.77 µM, the TGI (M14 melanoma) was 4.16 µM and the GI50 (T-47D breast) was 1.99 µM. For the same compound, the TGI (T-47D breast) was 8.53 µM, the GI50 (A549 NSCLC) was 3.32 µM and the TGI (A549 NSCLC) was greater than 100 µM. For the same compound, the GI50 (NCI-H23 lung) was 4.32 µM, the TGI (NCI-H23 lung) was 52.3 µM and the GI50 (RXF 393 renal) was 2.35 µM. For the same compound, the TGI (RXF 393 renal) was 7.65 µM, the GI50 (SR leukemia) was 2.51 µM and the TGI (SR leukemia) was 8.75 µM. For the same compound, the GI50 (SNB-75 CNS) was 1.79 µM and the TGI (SNB-75 CNS) was 7.29 µM.
